Assay [1] addresses T1, IDO1 (Homo sapiens, UniProt P14902). Briefly: IDO1 Cellular Assay in Hela Cells Stimulated with IFNγ. It is filed as cell-based. The conditions noted are these: IFNγ 100 ng/mL, 300 uM L-tryptophan, about 48 hours, fluorescence readout, read-out: IDO1 HELA Cell Assay, IC50. The method in brief: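 HeLa cells stimulated with 100 ng/mL IFNγ, supplemented with 300 uM L-tryptophan, incubated 48 h at 37° C with ten 3-fold compound dilutions. Unstimulated cells served as Max-E control. Kynurenine detected by fluorescence (ex 400/em 510 nm) after overnight methyl isonipecotate reaction; IC50 by four-parameter logistic fit.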

Assay [2] concerns the target T1, IDO1. The experiment in a line: IDO1 Human whole blood Assay. It counts as cell-based. More on the design: Human whole blood was drawn in sodium heparin coated tubes from healthy internal donors; from tissue; host or cells: Human whole blood from healthy donors, stimulated with LPS and IFNγ. The conditions noted are these: LPS and IFNγ 100 ng/mL, 18 h, kynurenine by LC/MS/MS. The method, then: Compounds to be tested were serially diluted in ten 3-fold steps in DMSO starting from 10 mM. 3 μL of compound dilutions or DMSO alone were then dispensed from the dilution plate into a polypropylene 96-well assay plate containing 97 μL of RPMI using an Echo 555 acoustic liquid handler (Labcyte). LPS and IFNγ was prepared in RPMI to a 10× of final conc. (1000 ng/mL), final concentration is 100 ng/mL.
Human whole blood was drawn in sodium heparin coated tubes from healthy internal donors. Two hundred forty μL of blood was transferred to each of the wells of a v-bottom 96 well plate. Thirty μL of compound was transferred from intermediate dilution plate, and incubated for 15 min. Thirty μL from stimulants was then transferred to blood and mixed thoroughly. Plate was covered with breathable membrane and incubated at 37° C. for overnight (18 h).
On day 2 isotope labeled standard of kynurenine and tryptophan was made in water at 10× concentration and 30 μL was added to the blood at 3 μM final concentration. The assay plates were centrifuged at 300×G for 10 min with no brake to separate plasma from red blood cells. Sixty μL of plasma samples was removed without disturbing red blood cells. Plasma was diluted with RPMI in 1:1 ratio and proteins were precipitated out with two volume of acetonitrile. The plates were centrifuged at 4000×G for 60 min. Twenty μL of supernatant was carefully transferred to a 384 well plate containing 40 μL of 0.1% formic acid in water and analyzed by LC/MS/MS.
LC/MS/MS analyses were performed using Thermo Fisher's LX4-TSQ Quantum Ultra system. This system consists of four Agilent binary high-performance liquid chromatography (HPLC) pumps and a TSQ Quantum Ultra triple quadruple MS/MS instrument. For each sample, 5 μL were injected onto an Atlantis T3 column (2.1 mm×150 mm, 3 μm particle size) from Waters. The mobile phase gradient pumped at 0.8 mL/min was used to elute the analytes from the column at 25° C. The elution started at 0% B increasing linearly to 25% B at 6.5 min, holding at 25% for 1 min, re-equilibrating to 10 min. Mobile phase A consisted of 0.1% formic acid in water. Mobile phase B consisted of 0.1% of formic acid in acetonitrile. Data was acquired in positive mode using a HESI interface. The operational parameters for the TSQ Quantum Ultra instrument were a spray voltage of 4000 V, capillary temperature of 380° C., vaporizer temperature 400° C., shealth gas 60 arbitrary units, Aux gas 20 arbitrary units, tube lens 85 and collision gas 1.2 mTorr. SRM chromatograms of kynurenine (Q1: 209.2>Q3:94.0) and internal standard (Q1: 215.3>Q3:98.2) were collected for 90 sec. The peak area was integrated by Xcalibur Quan software. The ratios between the kynurenine generated in the reaction and 2D6-Kynurenine spiked-in internal standard were used to generate percentage inhibition and IC50 values. Compounds were titrated and IC50's were calculated by 4 parameter sigmoidal curve fitting formula.
The biological activity data of selective compounds using the IDO1 human whole blood assay described above are summarized in the table below.

T1 sequence (P14902 whole entry): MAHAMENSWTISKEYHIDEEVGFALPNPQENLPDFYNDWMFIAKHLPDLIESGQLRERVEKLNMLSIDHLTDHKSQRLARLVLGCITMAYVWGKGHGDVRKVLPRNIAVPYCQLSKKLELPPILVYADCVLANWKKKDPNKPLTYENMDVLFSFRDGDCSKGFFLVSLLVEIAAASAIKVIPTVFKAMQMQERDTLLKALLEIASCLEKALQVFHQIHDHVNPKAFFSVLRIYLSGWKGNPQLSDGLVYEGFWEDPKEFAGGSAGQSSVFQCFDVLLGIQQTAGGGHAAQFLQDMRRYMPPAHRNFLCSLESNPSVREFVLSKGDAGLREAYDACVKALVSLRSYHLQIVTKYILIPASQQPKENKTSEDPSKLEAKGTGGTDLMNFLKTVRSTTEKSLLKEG

Usually IC50 stands for the midpoint of a concentration-inhibition curve. As for `C[C@H](C(=O)Nc1ccc(F)cc1)C12CC(NC(=O)c3ccc(Cl)cc3F)(C1)C2` [Example 52, 4-chloro-2-fluoro-N-[3-[(1S)-2-(4-fluoroanilino)-1-methyl-2-oxo-ethyl]-1-bicyclo[1.1.1]pentanyl]benzamide], the IC50 at IDO1 [1] was found to be 2.5 nM; on IDO1 [2], 53.3 nM.

As for `O=C(NC12CC(C3(C(=O)Nc4ccc(F)cc4)CCC3)(C1)C2)c1ccc(Cl)c(Cl)c1` [Example 5, 3,4-Dichloro-N-(3-(1-((4-fluorophenyl)carbamoyl)cyclobutyl)bicyclo[1.1.1]pentan-1-yl)benzamide], the IC50 at IDO1 [1] worked out at 2.12 nM; at IDO1 [2] it was 44.7 nM.

For `O=C(NC12CC(C3(NC(=O)c4ccc(F)cc4)CC3)(C1)C2)c1ccc(Cl)c(Cl)c1` [Example 24, 3,4-Dichloro-N-(3-(1-(4-fluorobenzamido)cyclopropyl)bicyclo[1.1.1]pentan-1-yl)benzamide], the IC50 stood at 4.13 nM at IDO1 [1] and 401 nM at IDO1 [2].

Turning to `C[C@H](C(=O)Nc1ccc(F)cc1)C12CC(NC(=O)c3cc(F)c(F)c(F)c3)(C1)C2` [Example 145, (S)-3,4,5-trifluoro-N-(3-(1-((4-fluorophenyl)amino)-1-oxopropan-2-yl)bicyclo[1.1.1]pentan-1-yl)benzamide], the IC50 on IDO1 [1] is 3.04 nM; at IDO1 [2], 49 nM.

`CC(C(=O)Nc1ccc(F)cc1)C12CC(NC(=O)c3ccc(Cl)c(Cl)c3)(C1)C2` (single isomer, unassigned) [Example 9, 3,4-dichloro-N-(3-(1-((4-fluorophenyl)amino)-1-oxopropan-2-yl)bicyclo[1.1.1]pentan-1-yl)benzamide]: the concentration for half-maximal inhibition (IC50) at IDO1 [1] was 1.55 nM; at IDO1 [2], 924 nM.

Compound `C[C@H](C(=O)Nc1ccc(F)cc1)C12CC(NC(=O)OC3CCCC3)(C1)C2` [Example 77, cyclopentyl (S)-(3-(1-((4-fluorophenyl)amino)-1-oxopropan-2-yl)bicyclo[1.1.1]pentan-1-yl)carbamate] registered an IC50 at IDO1 [2] of 452 nM.

For `CC(C(=O)Nc1ccc(F)cc1)C12CC(NC(=O)c3cnc(Cl)cn3)(C1)C2` (centres unmarked) [Example 140, 5-chloro-N-[3-[2-(4-fluoroanilino)-1-methyl-2-oxo-ethyl]-1-bicyclo[1.1.1]pentanyl]pyrazine-2-carboxamide], the half-inhibitory concentration (IC50) at IDO1 [1] came out at 399 nM.

Turning to `Cc1ccc(C(=O)NC23CC([C@H](C)C(=O)Nc4ccc(F)cc4)(C2)C3)cc1Cl` [Example 49, 3-chloro-N-[3-[(1S)-2-(4-fluoroanilino)-1-methyl-2-oxo-ethyl]-1-bicyclo[1.1.1]pentanyl]-4-methyl-benzamide], the IC50 on IDO1 [1] is 250 nM.

Take `Cc1ccnc(C(=O)NC23CC(C(C)C(=O)Nc4ccc(F)cc4)(C2)C3)c1` (centres unmarked) [Example 118, N-[3-[2-(4-fluoroanilino)-1-methyl-2-oxo-ethyl]-1-bicyclo[1.1.1]pentanyl]-4-methyl-pyridin-1-ium-2-carboxamide]: the IC50 on IDO1 [1] stood at 89.4 nM.

As for `CCc1cc(C(=O)NC23CC(C(C)C(=O)Nc4ccc(F)cc4)(C2)C3)no1` (centres unmarked) [Example 110, 5-ethyl-N-[3-[2-(4-fluoroanilino)-1-methyl-2-oxo-ethyl]-1-bicyclo[1.1.1]pentanyl]isoxazole-3-carboxamide], the IC50 on IDO1 [1] was 17.7 nM.

On to `O=C(NC1(C23CC(NC(=O)c4ccc(C(F)(F)F)cn4)(C2)C3)CC1)c1ccc(F)cc1` [Example 26, N-(3-(1-(4-fluorobenzamido)cyclopropyl)bicyclo[1.1.1]pentan-1-yl)-5-(trifluoromethyl)picolinamide], for which the IC50 at IDO1 [1] is 377 nM.

Turning to `CC(C(=O)Nc1ccc(F)cc1)C12CC(NC(=O)c3cccc4ccnn34)(C1)C2` (centres unmarked) [Example 126, N-[3-[2-(4-fluoroanilino)-1-methyl-2-oxo-ethyl]-1-bicyclo[1.1.1]pentanyl]pyrazolo[1,5-a]pyridin-1-ium-7-carboxamide], the IC50 at IDO1 [1] turned out to be 180 nM.

On to `Cc1ccnc(C(=O)NC23CC([C@H](C)C(=O)Nc4ccc(F)cc4)(C2)C3)n1` [Example 57, N-[3-[(1S)-2-(4-fluoroanilino)-1-methyl-2-oxo-ethyl]-1-bicyclo[1.1.1]pentanyl]-4-methyl-pyrimidin-1-ium-2-carboxamide], for which, on IDO1 [1], the IC50 amounted to 15.7 nM.

With `CC(C(=O)Nc1ccc(F)cc1)C12CC(NC(=O)c3noc4c3CCCC4)(C1)C2` (centres unmarked) [Example 115, N-[3-[2-(4-fluoroanilino)-1-methyl-2-oxo-ethyl]-1-bicyclo[1.1.1]pentanyl]-4,5,6,7-tetrahydro-1,2-benzoxazole-3-carboxamide], the IC50 on IDO1 [1] worked out at 67 nM.

Regarding `CC(C(=O)Nc1ccc(F)cc1)C12CC(NC(=O)c3cc(Cl)ccn3)(C1)C2` (centres unmarked) [Example 112, 4-chloro-N-[3-[2-(4-fluoroanilino)-1-methyl-2-oxo-ethyl]-1-bicyclo[1.1.1]pentanyl]pyridin-1-ium-2-carboxamide], the IC50 on IDO1 [1] is 40.4 nM.

Consider `C[C@@H](C(=O)Nc1cnc(F)c(F)c1)C12CC(NC(=O)c3ccc(Cl)c(Cl)c3)(C1)C2` [Example 88, (R)-3,4-Dichloro-N-(3-(1-((5,6-difluoropyridin-3-yl)amino)-1-oxopropan-2-yl)bicyclo[1.1.1]pentan-1-yl)benzamide], for which the IC50 on IDO1 [1] is 315 nM.

`C[C@@H](C(=O)Nc1ccc(F)cc1)C12CC(NC(=O)c3ccc(F)c(F)c3)(C1)C2` [Example 43, 3,4-difluoro-N-[3-[(1R)-2-(4-fluoroanilino)-1-methyl-2-oxo-ethyl]-1-bicyclo[1.1.1]pentanyl]benzamide]: the IC50 on IDO1 [1] was determined as 153 nM.

As to `CC(C(=O)Nc1ccc(F)cc1)C12CC(NC(=O)c3cnn4ccccc34)(C1)C2` (centres unmarked) [Example 113, N-[3-[2-(4-fluoroanilino)-1-methyl-2-oxo-ethyl]-1-bicyclo[1.1.1]pentanyl]pyrazolo[1,5-a]pyridin-1-ium-3-carboxamide], the IC50 at IDO1 [1] was determined as 47.3 nM.

Consider `COc1cc(C(=O)NC23CC(C(C)C(=O)Nc4ccc(F)cc4)(C2)C3)ccn1` (centres unmarked) [Example 125, N-[3-[2-(4-fluoroanilino)-1-methyl-2-oxo-ethyl]-1-bicyclo[1.1.1]pentanyl]-2-methoxy-pyridin-1-ium-4-carboxamide], for which, on IDO1 [1], the IC50 came out at 178 nM.

As to `O=C(NC1(C23CC(NC(=O)c4nc(C5CC5)no4)(C2)C3)CC1)c1ccc(F)cc1` [Example 29, 3-cyclopropyl-N-(3-(1-(4-fluorobenzamido)cyclopropyl)bicyclo[1.1.1]pentan-1-yl)-1,2,4-oxadiazole-5-carboxamide], the IC50 at IDO1 [1] was found to be 276 nM.

Consider `Cc1cc(C(=O)NC23CC([C@@H](C)C(=O)Nc4ccc(F)cc4)(C2)C3)ccc1F` [Example 39, 4-fluoro-N-[3-[(1R)-2-(4-fluoroanilino)-1-methyl-2-oxo-ethyl]-1-bicyclo[1.1.l]pentanyl]-3-methyl-benzamide], for which the IC50 on IDO1 [1] was determined as 201 nM.

As to `CC(C(=O)Nc1ccc(F)cc1)C12CC(NC(=O)c3cc(C4CC4)on3)(C1)C2` (centres unmarked) [Example 120, 5-cyclopropyl-N-[3-[2-(4-fluoroanilino)-1-methyl-2-oxo-ethyl]-1-bicyclo[1.1.1]pentanyl]isoxazole-3-carboxamide], the IC50 at IDO1 [1] was 125 nM.

With `Cc1noc(C(=O)NC23CC(C4(NC(=O)c5ccc(F)cc5)CC4)(C2)C3)n1` [Example 28, N-(3-(1-(4-fluorobenzamido)cyclopropyl)bicyclo[1.1.1]pentan-1-yl)-3-methyl-1,2,4-oxadiazole-5-carboxamide], the IC50 on IDO1 [1] amounted to 72.2 nM.

As for `C[C@H](C(=O)Nc1ccc(F)cc1)C12CC(NC(=O)c3cncc(C(F)(F)F)c3)(C1)C2` [Example 68, N-[3-[(1S)-2-(4-fluoroanilino)-1-methyl-2-oxo-ethyl]-1-bicyclo[1.1.1]pentanyl]-5-(trifluoromethyl)pyridin-1-ium-3-carboxamide], the IC50 at IDO1 [1] was 13.9 nM.

The record behind these values is patent publication US11478461B2, “[1.1.1] bicyclo compounds as indoleamine 2,3-dioxygenase inhibitors” (Merck Sharp & Dohme Corp., priority 2018, dated 2022).
